Measurements taken from patent US7501419B2, “4-Squarylpiperazine derivatives as antiviral agents” (priority 2006, dated 2009).

system: HIV-1; assay: Single-round infectious HIV-1 luciferase reporter virus infection of HeLa CD4 cells; type: cell-based; conditions: Human immunodeficiency virus 1, HeLa, 72 h
Description: • Virus production—Human embryonic Kidney cell line, 293T, was propagated in Dulbecco's Modified Eagle Medium (Invitrogen, Carlsbad, Calif.) containing 10% fetal Bovine serum (FBS, Sigma, St. Louis, Mo.). • Virus infection—Human epithelial cell line, HeLa, expressing the HIV-1 receptor CD4 was propagated in Dulbecco's Modified Eagle Medium (Invitrogen, Carlsbad, Calif.) containing 10% fetal Bovine serum (FBS, Sigma, St. Louis , Mo.) and supplemented with 0.2 mg/mL Geneticin (Invitrogen, Carlsbad, Calif.).
Transfections were performed using lipofectAMINE PLUS reagent as described by the manufacturer (Invitrogen, Carlsbad, Calif.).
• 1. […] Compound was added in a 2 μl dimethylsulfoxide solution, so that the final assay concentration would be ≦10 μM. • 3. 100 μl of single-round infectious reporter virus in Dulbecco's Modified Eagle Medium was then added to the plated cells and compound at an approximate multiplicity of infection (MOI) of 0.01, resulting in a final volume of 200 μl per well. • 4. Virally-infected cells were incubated at 37 degrees Celsius, in a CO2 incubator, and harvested 72 h after infection. • 5. Viral infection was monitored by measuring luciferase expression from viral DNA in the infected cells using a luciferase reporter gene assay kit, as described by the manufacturer (Roche Molecular Biochemicals, Indianapolis, Ind.). Infected cell supernatants were removed and 50 μl of lysis buffer was added per well. After 15 minutes, 50 μl of freshly-reconstituted luciferase assay reagent was added per well. Luciferase activity was then quantified by measuring luminescence using a Wallac microbeta scintillation counter. • 6. […] An EC50 provides a method for comparing the antiviral potency of the compounds of this disclosure. The effective concentration for fifty percent inhibition (EC50) was calculated with the Microsoft Excel Xlfit curve fitting software. For each compound, curves were generated from percent inhibition calculated at 10 different concentrations by using a four parameter logistic model (model 205).

| SMILES | EC50 |
| --- | --- |
| COc1cccc(-c2c(N3CCN(C(=O)C(=O)c4c[nH]c5c(OC)ncc(OC)c45)CC3)c(=O)c2=O)c1 [Number 42] | 0.05 to 0.5 µM |
| O=C(C(=O)N1CCN(c2c(N3CCC4(CCCC4)CC3)c(=O)c2=O)CC1)c1c[nH]c2cccc(F)c12 [Number 26] | > 5 µM |
| COc1ncc(OC)c2c(C(=O)C(=O)N3CCN(c4c(-c5ccccc5)c(=O)c4=O)CC3)c[nH]c12 [Number 29] | 0.05 to 0.5 µM |
| COc1ncc(OC)c2c(C(=O)C(=O)N3CCN(c4c(-c5nccs5)c(=O)c4=O)CC3)c[nH]c12 [Number 43] | 0.5 to 5 µM |
| CN1CCN(c2c(N3CCN(C(=O)C(=O)c4c[nH]c5cccc(F)c45)CC3)c(=O)c2=O)CC1 [Number 24] | > 5 µM |
| COc1ncc(OC)c2c(C(=O)C(=O)N3CCN(c4c(-c5ccccc5)c(=O)c4=O)C[C@@H]3C)c[nH]c12 [Number 33] | 0.05 to 0.5 µM |
| COc1ncc(OC)c2c(C(=O)C(=O)N3CCN(c4c(-c5ccccc5)c(=O)c4=O)C[C@H]3C)c[nH]c12 [Number 32] | 0.05 to 0.5 µM |
| COc1ncc(OC)c2c(C(=O)C(=O)N3CCN(c4c(-c5cccs5)c(=O)c4=O)CC3)c[nH]c12 [Number 30] | 0.05 to 0.5 µM |
| O=C(C(=O)N1CCN(c2c(N3CCc4ccccc4C3)c(=O)c2=O)CC1)c1c[nH]c2cccc(F)c12 [Number 23] | > 5 µM |
| COc1cnc(Br)c2[nH]cc(C(=O)C(=O)N3CCN(c4c(-c5ccccc5)c(=O)c4=O)CC3)c12 [Number 34] | 0.05 to 0.5 µM |
| O=C(C(=O)N1CCN(c2c(N3CCSCC3)c(=O)c2=O)CC1)c1c[nH]c2cccc(F)c12 [Number 21] | > 5 µM |
| COc1ncc(OC)c2c(C(=O)C(=O)N3CCN(c4c(-c5ncco5)c(=O)c4=O)CC3)c[nH]c12 [Number 37] | 0.5 to 5 µM |
| COc1cnc(-c2cnccn2)c2[nH]cc(C(=O)C(=O)N3CCN(c4c(-c5ccccc5)c(=O)c4=O)CC3)c12 [Number 35] | 0.05 to 0.5 µM |
| O=C(C(=O)N1CCN(c2c(-c3ccco3)c(=O)c2=O)CC1)c1c[nH]c2cccc(F)c12 [Number 28] | 0.5 to 5 µM |
| CCCN(CCC)c1c(N2CCN(C(=O)C(=O)c3c[nH]c4cccc(F)c34)CC2)c(=O)c1=O [Number 25] | > 5 µM |
| COc1cnc(-n2cncn2)c2[nH]cc(C(=O)C(=O)N3CCN(c4c(-c5ccccc5)c(=O)c4=O)CC3)c12 [Number 36] | 0.05 to 0.5 µM |
| COc1cnc(Cl)c2[nH]cc(C(=O)C(=O)N3CCN(c4c(-c5ccccc5)c(=O)c4=O)CC3)c12 [Number 31] | 0.05 to 0.5 µM |
| COc1cnc(-n2ccc(C)n2)c2[nH]cc(C(=O)C(=O)N3CCN(c4c(-c5ccccc5)c(=O)c4=O)CC3)c12 [Number 40] | 0.05 to 0.5 µM |
| CCN(Cc1ccccc1)c1c(N2CCN(C(=O)C(=O)c3c[nH]c4cccc(F)c34)CC2)c(=O)c1=O [Number 22] | > 5 µM |
| O=C(C(=O)N1CCN(c2c(-c3cccs3)c(=O)c2=O)CC1)c1c[nH]c2cccc(F)c12 [Number 27] | 0.05 to 0.5 µM |
| COc1ncc(OC)c2c(C(=O)C(=O)N3CCN(c4c(-c5ccc(F)cc5)c(=O)c4=O)CC3)c[nH]c12 [Number 41] | 0.05 to 0.5 µM |
| COc1ncc(OC)c2c(C(=O)C(=O)N3CCN(c4c(-c5ccccc5)c(=O)c4=O)[C@@H](C)C3)c[nH]c12 [Number 38] | 0.05 to 0.5 µM |
| COc1ncc(OC)c2c(C(=O)C(=O)N3CCN(c4c(-c5ccccc5)c(=O)c4=O)[C@H](C)C3)c[nH]c12 [Number 39] | 0.05 to 0.5 µM |
